Test results published in patent publication US4900815A, “Sulfated polysaccharide DS4152” (Daiichi Seiyaku Co., Ltd., priority 1986, dated 1990).

What was measured:
[1] = tested on: angiogenesis of the chick CAM; test: CAM angiogenesis inhibition, various steroids alone or with DS4152; format: in vivo; settings: for degree of increase: ID50 alone vs. in the presence of 10 ng of DS4152; for ID50, used in combination with DS4152: in the presence of 10 ng of DS4152; for ID50, alone: steroid alone
breast cancer = settings: Oncologia, 10, 72 (1984); cited from earlier work
[2] = tested on: vascularization in chorioallantoic membrane (CAM) of chick embryo, rabbit cornea and hamster cheek pouches; settings: cited from earlier work
CAM angiogenesis = test: CAM Angiogenesis Inhibition Test (Direct Method), antiestrogens with or without DS4152; format: in vivo, chick
Procedure: Using chick embryos, a test was carried out in accordance with the following method, which was a partial modification of the Taylor-Folkman'smethod Nature, 297, 307 (1982)].
Either DS4152 or heparin dissolved in physiological saline was added to the CAM of each 4-5 day old fertilized chicken 1 egg (species: NORIN CROSS) and then the eggs were incubated at 37° C.
Two days after the addition of the agent, the degree of the CAM vascularization was compared with that of a control to which physiological saline was only added. The 50% vascularization inhibition dose (ID50) was calculated by the probit method.
A test was conducted in the same manner as in Example 2. Antiestrogens were separately dissolved or suspended in physiological saline and were added either alone or together with DS4152. The eggs with the agents were incubated at 37° C. Two days after the addition of the agents, the degrees of development of CAM vessels were individually compared with that of a control to which physiological saline was only added.

CAM vascularization = test: Antiangiogenic Effects (Ex Vivo) of steroids with or without DS4152; design: species or system chick (blood from male ICR mice)
Procedure: Male ICR mice were orally administered with a solution of DS4152 dissolved in physiological saline. A saline suspension of a steroid was administered orally or intramuscularly, either in combination with DS4152 or alone. Blood samples collected after 6 hours were prevented from coagulation with a 0.313% aqueous solution of sodium citrate. Each blood sample was added to the 5 day CAM in the same manner as in the direct method. The inhibitory effects were judged after two days. Results were expressed by inhibition ratios (%) of CAM vascularization of each group to that of control group with a blood sample collected from the mice with saline. (Table 11).

| SMILES | degree of increase [1] | ID50, used in combination with DS4152 [1] | ID50, alone [1] | further results |
| --- | --- | --- | --- | --- |
| C[C@]12CCC(=O)C=C1CC[C@@H]1[C@@H]2[C@@H](O)C[C@@]2(C)[C@H]1CC[C@]2(O)C(=O)CO [Hydrocortisone] | 6.9 times | 0.16 μg/embryo | 1.10 μg/embryo |  |
| CCC(=O)O[C@H]1CC[C@H]2[C@@H]3CCC4=CC(=O)CC[C@]4(C)[C@H]3CC[C@]12C [testosterone propionate] |  |  |  | effectivity (anti-breast cancer) (breast cancer): 20-30% |
| C[C@@H]1C[C@H]2[C@@H]3CCC4=CC(=O)C=C[C@]4(C)[C@@]3(F)[C@@H](O)C[C@]2(C)[C@@]1(O)C(=O)CO [dexamethasone] |  |  |  | suppression of experimentally induced vascularization [2]: effective |
| CC(=O)O[C@]1(C(C)=O)CC[C@H]2[C@@H]3C[C@H](C)C4=CC(=O)CC[C@]4(C)[C@H]3CC[C@@]21C [Medroxyprogesterone acetate] | 2.7 times | 0.42 μg/embryo | 1.12 μg/embryo |  |
| C[C@H]1C[C@@H]2[C@H]([C@@H](O)C[C@@]3(C)[C@H]2CC[C@]3(O)C(=O)CO)[C@@]2(C)C=CC(=O)C=C12 [6α-Methylprednisolone] | 38.3 times | 0.03 μg/embryo | 1.15 μg/embryo | suppression of experimentally induced vascularization [2]: effective |
| COc1ccc2c(c1)CCC(c1ccccc1)=C2c1ccc(OCCN2CCCC2)cc1 [Nafoxidine chloride] |  |  |  | percent inhibition of CAM vascularization (CAM angiogenesis; antiestrogen 1 μg, DS4152 0 μg): -4.3%; percent inhibition of CAM vascularization (CAM angiogenesis; antiestrogen 1 μg, DS4152 0.01 μg): 23.1%; percent inhibition of CAM vascularization (CAM angiogenesis; antiestrogen 10 μg, DS4152 0 μg): -3.2%; percent inhibition of CAM vascularization (CAM angiogenesis; antiestrogen 10 μg, DS4152 0.01 μg): 31.6% |
| C[C@@]12CCC[C@H]1[C@@H]1CC[C@H]3CCCC[C@]3(C)[C@H]1CC2 [5α-Androstane] | 8.0 times | 0.29 μg/embryo | 2.32 μg/embryo |  |
| C[C@]12CC[C@@H](O)C[C@H]1CC[C@@H]1[C@@H]2CC[C@@]2(C)[C@H]1CC[C@]2(O)C(=O)CO [Tetrahydro S] | 100.0 times | 0.01 μg/embryo | 1.00 μg/embryo | Inhibition rate of angiogenesis (CAM vascularization; steroid p.o. 1 mg/kg, DS4152 0): -2.6%; Inhibition rate of angiogenesis (CAM vascularization; steroid p.o. 1 mg/kg, DS4152 30 mg/kg p.o.): 71.7%; Inhibition rate of angiogenesis (CAM vascularization; steroid p.o. 5 mg/kg, DS4152 0): -17.3%; Inhibition rate of angiogenesis (CAM vascularization; steroid p.o. 5 mg/kg, DS4152 30 mg/kg p.o.): 80.7% |
| C[C@H]1C[C@H]2[C@@H]3CCC4=CC(=O)C=C[C@]4(C)[C@@]3(F)[C@@H](O)C[C@]2(C)[C@@]1(O)C(=O)CO [Betamethasone] | 16.0 times | 0.05 μg/embryo | 0.80 μg/embryo |  |
